From PubChem BioAssay (NCI) come the findings set out here.

Holding throughout (experiment): NCI anticancer screen, dose series, 48 h
In experiment [1] the test system is HCC-2998 colon.
The subject of experiment [2] is HCT-15 colon.
Experiment [3] deals with OVCAR-3 ovarian.
Experiment [4] has as its system OVCAR-5 ovarian.
For experiment [5], the system named is PC-3 prostate.
Experiment [6] relates to SK-MEL-2 melanoma.
The subject of experiment [7] is SK-MEL-28 melanoma.
Experiment [8] concerns SN12C renal.
The subject of experiment [9] is TK-10 renal.
The test system of experiment [10] is U251 CNS.

Values joined by “and” are separate entries in the source; they are usually repeats but may differ in a detail not shown here. Identical values can stand only once.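 Step 1: Grow cells in 96-well plates. Step 2: Expose to compound for 48 hours at 5 concentrations. Step 3: Interpolate endpoints linearly; if unreached, use highest concentration. GI50: concentration for 50% inhibition of growth. TGI: total growth inhibition.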

For the molecule `C=CC(=O)N1CCC(Oc2cc3c(Nc4ccc(Cl)c(Cl)c4F)ncnc3cc2OC)CC1`, the GI50 was 7.61 µM and 2.52 µM in experiment [1]; 2.52 µM and 2.23 µM in experiment [2]; 2.63 µM and 1 µM in [3]; 4.93 µM and 3.03 µM in experiment [4]; 7.66 µM and 2.95 µM in [5]; 6.15 µM and 1.95 µM in [6]. Also, the GI50 is 11.6 µM and > 9.46 µM in [7]; 2.88 µM and 1.79 µM in experiment [8]; below 0.001 µM in experiment [9]; 7.13 µM and 3.33 µM in experiment [10]. The TGI in experiment [1] was 24.8 µM and > 10 µM; in experiment [2], 15.6 µM and > 10 µM; in experiment [3], 16.5 µM and > 8.17 µM; in experiment [4] it was 39 µM and > 10 µM; in [5], 24.5 µM and > 10 µM; in experiment [6], 27 µM and 6.41 µM. Besides, the TGI is 25.8 µM and > 10 µM in [7]; 25.2 µM and > 10 µM in experiment [8]; 6.61 µM and 4.43 µM in experiment [9]; 27 µM and > 10 µM in experiment [10].
As for `CC(=O)OC1OC([C@H]2c3cccc(O)c3C(=O)c3c(O)cc(C)cc32)C(O)C(O)C1O` (stereo partly specified), the GI50 in [1] is below 0.01 µM; in experiment [2] it was 0.0385 µM; in experiment [3], 0.029 µM; in experiment [4], below 0.0296 µM; in experiment [6], 0.0962 µM; in [7], 0.191 µM. Besides, the GI50 in [8] was below 0.0259 µM; in [9], 0.254 µM; in experiment [10] it was below 0.0164 µM. The TGI in [2] was 2 µM; in experiment [3], 0.0885 µM; in experiment [4], 4.71 µM; in experiment [5], 1.09 µM; in experiment [6], 2.63 µM; in experiment [7], above 23.2 µM. Besides, the TGI worked out at 1.75 µM in experiment [9] and 0.244 µM in [10].
Turning to `Cc1cc(Cl)ccc1OCC(=O)Nc1nc2c(Cl)cccc2s1`, the GI50 in [1] is above 100 µM; in [2], 6.49 µM; in experiment [3], 28.1 µM; in experiment [4], 50.4 µM; in experiment [5], 8.89 µM; in experiment [6], above 100 µM. Also, the GI50 in experiment [7] was above 100 µM; in [8], 39.2 µM; in experiment [9], 61.3 µM; in experiment [10] it was 8.32 µM. The TGI was above 100 µM in [1]; above 100 µM in experiment [2]; 93.8 µM in experiment [3]; above 100 µM in [4]; above 100 µM in [5]; above 100 µM in experiment [6]. The TGI in experiment [7] is above 100 µM; in experiment [8], above 100 µM; in [9], above 100 µM; in experiment [10], 25.2 µM.
Take `CNC(=O)OCc1c(COC(=O)NC)c(-c2ccc(-c3ccccc3)cc2)n(C)c1C`: the TGI in experiment [1] amounted to 13.1 µM; in experiment [2] it was 9.43 µM; in [3] it was 7.88 µM; in experiment [4], 8.26 µM; in experiment [5], 12.3 µM; in experiment [6] it was 4.96 µM. For the same molecule, the TGI in [7] came out at 28.7 µM; in [8], 3.8 µM; in [9], 15.4 µM; in experiment [10] it was 10.9 µM.
On to `COc1cccc2c1C(=N)c1c(O)c3c(c(O)c1C2=O)C[C@@](O)(C(C)=O)C[C@@H]3O[C@H]1C[C@H](N)[C@H](O)[C@H](C)O1`, for which the GI50 was 0.474 µM in experiment [1]; 2.53 µM in experiment [2]; 1.13 µM in experiment [3]; 0.512 µM in [4]; 1.3 µM in experiment [5]; 2.28 µM in experiment [6]. Besides, the figures for the GI50 in [7], in experiment [8] and in [10] were 2.58 µM, 0.224 µM and 0.144 µM, respectively. Further, the TGI turned out to be 2.51 µM in experiment [1]; 18.2 µM in experiment [2]; 7.11 µM in [3]; 5.68 µM in experiment [4]; 9.33 µM in [5]; 4.95 µM in [6]. Also, the TGI in experiment [7] was found to be 13.9 µM; in [8], 1.21 µM; in experiment [9] it was 3.19 µM; in experiment [10], 2.14 µM.
Consider `Cc1cn(-c2cc(NC(=O)c3cccc(C#Cc4cccc5[nH]nc(N)c45)c3)cc(C(F)(F)F)c2)cn1`, for which the GI50 is 3.17 µM in [1]; 4.49 µM in experiment [2]; 11.1 µM in experiment [3]; 3.16 µM in experiment [4]; 6.46 µM in experiment [5]; 2.27 µM in experiment [6]. In addition, the GI50 was 2.62 µM in experiment [7], 7.6 µM in experiment [8], 17.8 µM in experiment [9] and 5.15 µM in experiment [10]. Moreover, the TGI in experiment [1] was above 100 µM; in experiment [2], above 100 µM; in [3] it was 83.1 µM; in experiment [4], above 100 µM; in [5], 26.7 µM; in experiment [6] it was 8.14 µM. For the same molecule, the TGI is 25.7 µM in experiment [7], above 100 µM in experiment [8], 60.4 µM in [9] and 20.3 µM in experiment [10].
Turning to `CN(C)CCC(=O)N1C/C(=C\c2ccc(Cl)c(Cl)c2)C(=O)/C(=C/c2ccc(Cl)c(Cl)c2)C1`, the TGI in [1] stood at 0.955 µM; in experiment [2] it was 0.493 µM; in experiment [3], 0.93 µM; in experiment [4] it was 1.69 µM; in experiment [5] it was 0.398 µM; in experiment [6], 3.34 µM. Besides, the TGI in experiment [7] came out at 1.82 µM; in experiment [8] it was 0.44 µM; in experiment [9] it was 1.58 µM; in [10], 0.437 µM.
Take `N/N=C\c1c2ccccc2c(=O)n2c1oc1ccccc12`: the GI50 in experiment [1] was 16.5 µM; in experiment [2], 17.3 µM; in [3], 14.7 µM; in [4], 18.4 µM; in experiment [5], 12.7 µM; in experiment [6] it was 26.5 µM. The GI50 in experiment [7] is 18.8 µM; in [8] it was 14.4 µM; in experiment [9], 18.7 µM; in experiment [10], 14.6 µM. For the same molecule, the TGI in experiment [1] is 30.5 µM; in experiment [2], 34.6 µM; in [3] it was 28 µM; in experiment [4], 34.8 µM; in experiment [5], 26.4 µM; in [6], above 100 µM. Moreover, the TGI in [7] is 38.7 µM; in [8], 29.7 µM; in experiment [9], 34.3 µM; in [10] it was 27.7 µM.
